Data reported in patent publication US20260097012A1, “COMPOSITIONS AND METHODS FOR TREATING GRAFT-RELATED ARRHYTHMIA” (BlueRock Therapeutics LP, priority 2022, published 2026).

Test system: graft related arrhythmias (sustained VT)
Experiment: Treatment of graft-induced arrhythmia in pig model (myocardial infarction plus cardiomyocyte graft)
Conditions: pig P2, after VT on day 10/11; by day 13 onwards

CCCCc1oc2ccccc2c1C(=O)c1cc(I)c(OCCN(CC)CC)c(I)c1 [amiodarone]
effect of adjusting the dosage on rhythm: effective at achieving normal sinus rhythm
